Among the test systems are IGROV-1; MDA-MB-435; RPMI-8226; SK-MEL-5; Malme-3M; MCF7; SN12C; MDA-N; HOP-62; OVCAR-5; HCC 2998; PC-3; NCI/ADR-RES; K562; KM12; UACC-257; HCT-116; OVCAR-8; U-251; BT-549.
Test in all cases: NCI tumour cell line growth inhibition, 48 h

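Five compound concentrations were applied to cells in 96-well plates for 48 hours; endpoints were derived by simple linear interpolation of the resulting dose-response curve. Abbreviation: GI50, concentration required for 50% inhibition of growth.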 Active and inactive are the calls of the source. Rule as the data show it: active = GI50 up to about 1.1 µM and inactive = higher.

For `Oc1ccnc(SCc2ccc(Cl)cc2)n1`, the GI50 with IGROV-1 is > 100 µM (inactive); in the test with MDA-MB-435 it was > 100 µM (inactive); in the test on RPMI-8226, 56.1 µM (inactive); with SK-MEL-5 it was > 100 µM (inactive); with Malme-3M, > 100 µM (inactive); in the test on MCF7 it was > 100 µM (inactive). In addition, the GI50 was > 100 µM (inactive) in the test with SN12C; > 100 µM (inactive) with MDA-N; > 100 µM (inactive) in the test with HOP-62; > 100 µM (inactive) with OVCAR-5; 13.4 µM (inactive) in the test with HCC 2998; > 100 µM (inactive) with PC-3. The GI50 in the test with NCI/ADR-RES, in the test with K562, in the test with KM12, in the test with UACC-257, in the test with HCT-116 and with OVCAR-8 was > 100 µM (inactive) throughout. The GI50 with U-251 and in the test with BT-549 was > 100 µM (inactive) throughout.

In the case of `O=C1C=C(OCCCl)C(=O)c2c(O)ccc(O)c21`, the GI50 in the test on IGROV-1 was 1.81 µM (inactive); in the test with MDA-MB-435, 0.204 µM (active); in the test with RPMI-8226, 2.08 µM (inactive); in the test on SK-MEL-5 it was 0.173 µM (active); in the test with Malme-3M, 0.175 µM (active); in the test on MCF7, 0.216 µM (active). Also, the GI50 is 0.225 µM (active) in the test on SN12C; 0.17 µM (active) in the test on MDA-N; 0.589 µM (active) in the test with HOP-62; 1.59 µM (inactive) in the test with OVCAR-5; 1.63 µM (inactive) in the test with HCC 2998; 1.82 µM (inactive) with PC-3. For the same compound, the GI50 with NCI/ADR-RES is 2.56 µM (inactive); in the test on K562, 2.25 µM (inactive); in the test with KM12, 2.07 µM (inactive); with UACC-257, 0.177 µM (active); in the test on HCT-116, 0.409 µM (active); in the test with OVCAR-8, 1.94 µM (inactive). Besides, the GI50 is 1.84 µM (inactive) in the test with U-251 and 0.226 µM (active) in the test with BT-549.

On to `CCN1C(=O)C(C)S/C1=N\NC(=O)CSc1nc2ccccc2c(=O)n1CC` (stereo not given), for which the GI50 in the test on IGROV-1, in the test on MDA-MB-435, in the test on RPMI-8226, with SK-MEL-5, in the test with Malme-3M and in the test with MCF7 was > 100 µM (inactive) throughout. In addition, the GI50 in the test on SN12C, in the test on MDA-N, with HOP-62, with OVCAR-5, in the test with HCC 2998 and in the test with PC-3 was > 100 µM (inactive) throughout. For the same compound, the GI50 is > 100 µM (inactive) with NCI/ADR-RES; 98.6 µM (inactive) in the test with K562; > 100 µM (inactive) with KM12; > 100 µM (inactive) with UACC-257; > 100 µM (inactive) in the test on HCT-116; > 100 µM (inactive) in the test with OVCAR-8. The GI50 in the test on U-251 and with BT-549 was > 100 µM (inactive) each time.

Consider `O=C(c1ccsc1)c1cc2c(s1)C(=O)c1ccsc1C2=O`, for which the GI50 was 0.204 µM (active) in the test with IGROV-1; 0.0271 µM (active) in the test with MDA-MB-435; 0.136 µM (active) in the test with RPMI-8226; 0.0279 µM (active) with SK-MEL-5; 0.0202 µM (active) with Malme-3M; 0.182 µM (active) in the test with MCF7. Moreover, the GI50 with SN12C was 0.0635 µM (active); with MDA-N, 0.0237 µM (active); with HOP-62, 0.168 µM (active); in the test on OVCAR-5, 0.552 µM (active); in the test on HCC 2998 it was 0.537 µM (active); with PC-3, 0.29 µM (active). In addition, the GI50 is 0.137 µM (active) in the test with NCI/ADR-RES; 0.184 µM (active) in the test on K562; 0.191 µM (active) in the test on KM12; 0.174 µM (active) in the test with UACC-257; 0.195 µM (active) in the test with HCT-116; 0.178 µM (active) in the test with OVCAR-8. Also, the GI50 with U-251 is 0.159 µM (active); in the test with BT-549 it was 0.0807 µM (active).

For `C=C(CCC/C(C)=C/C=C/[C@@H](C)CCCc1ccoc1)C[C@@H]1OC(=O)[C@H](C)[C@@H]1O`, the GI50 with IGROV-1 is 10.7 µM (inactive); in the test on MDA-MB-435, 7.96 µM (inactive); with RPMI-8226, 12.8 µM (inactive); in the test with SK-MEL-5 it was 6.3 µM (inactive); in the test on Malme-3M, 8.91 µM (inactive); with MCF7, 7.89 µM (inactive). Moreover, the GI50 with SN12C is 9.68 µM (inactive); in the test with MDA-N, 9.73 µM (inactive); with HOP-62 it was 8.69 µM (inactive); in the test on OVCAR-5, 18.4 µM (inactive); in the test with HCC 2998, 11.6 µM (inactive); in the test with PC-3 it was 7.31 µM (inactive). Also, the GI50 in the test on NCI/ADR-RES was 9.04 µM (inactive); with K562, 21.5 µM (inactive); with KM12, 7.24 µM (inactive); with UACC-257 it was 6.35 µM (inactive); in the test on HCT-116 it was 13.3 µM (inactive); in the test with OVCAR-8, 10.1 µM (inactive). Also, the GI50 is 11 µM (inactive) with U-251 and 8.95 µM (inactive) in the test with BT-549.

Turning to `CCOC(=O)C1C(=O)CC1(C)C` (stereo not given), the GI50 in the test on IGROV-1, in the test with MDA-MB-435, in the test with RPMI-8226, with SK-MEL-5, in the test with Malme-3M and in the test on MCF7 was > 10 µM (inactive) each time. Besides, the GI50 with SN12C, in the test on MDA-N, in the test on HOP-62, in the test on OVCAR-5, in the test on HCC 2998 and in the test on PC-3 was > 10 µM (inactive) throughout. The GI50 in the test with NCI/ADR-RES, with K562, with KM12, in the test with UACC-257, in the test on HCT-116 and in the test on OVCAR-8 was > 10 µM (inactive) each time. Further, the GI50 with U-251 and in the test with BT-549 was > 10 µM (inactive) in each case.

On to `O=c1oc2ccc([N+](=O)[O-])cc2c(Nc2ccc3c(c2)S(=O)(=O)c2ccccc2O3)c1[N+](=O)[O-]`, for which the GI50 in the test on IGROV-1 was > 100 µM (inactive); with MDA-MB-435 it was > 100 µM (inactive); in the test on RPMI-8226 it was 39 µM (inactive); in the test on SK-MEL-5, 81.8 µM (inactive); in the test on Malme-3M, > 100 µM (inactive); in the test with MCF7 it was > 100 µM (inactive). For the same compound, the GI50 was 80.2 µM (inactive) with SN12C; 68.1 µM (inactive) in the test with MDA-N; 49.9 µM (inactive) in the test on HOP-62; > 100 µM (inactive) in the test with OVCAR-5; 26.5 µM (inactive) with HCC 2998; 34.8 µM (inactive) with PC-3. Further, the GI50 is > 100 µM (inactive) in the test on NCI/ADR-RES; 33 µM (inactive) in the test with K562; > 100 µM (inactive) in the test with KM12; > 100 µM (inactive) in the test with UACC-257; 73.5 µM (inactive) in the test with HCT-116; > 100 µM (inactive) in the test on OVCAR-8. Further, the figures for the GI50 in the test with U-251 and in the test with BT-549 were 57.3 µM (inactive) and 73.1 µM (inactive), respectively.

Turning to `FC(F)(Sc1nc2ccccc2[nH]1)c1nc2ccccc2o1`, the GI50 is > 100 µM (inactive) in the test on IGROV-1; > 100 µM (inactive) in the test with MDA-MB-435; > 100 µM (inactive) with RPMI-8226; > 100 µM (inactive) in the test on SK-MEL-5; 24.4 µM (inactive) in the test on Malme-3M; > 100 µM (inactive) in the test with MCF7. In addition, the GI50 with SN12C, in the test on MDA-N, in the test with HOP-62, in the test on OVCAR-5, with HCC 2998 and in the test on PC-3 was > 100 µM (inactive) each time. The GI50 with NCI/ADR-RES was > 100 µM (inactive); in the test on K562, > 100 µM (inactive); in the test on KM12, > 100 µM (inactive); in the test with UACC-257, > 100 µM (inactive); in the test on HCT-116, > 100 µM (inactive); in the test on OVCAR-8, 43.1 µM (inactive). Besides, the GI50 was > 100 µM (inactive) in the test on U-251 and 75.5 µM (inactive) with BT-549.

On to `CCCCNC(=S)Nc1nc(C(=O)NNC(=S)NCc2ccccc2)cs1`, for which the GI50 in the test on IGROV-1 was 30.1 µM (inactive); in the test on MDA-MB-435, 35.8 µM (inactive); in the test with RPMI-8226, 45.9 µM (inactive); in the test on SK-MEL-5, 16.3 µM (inactive); in the test on Malme-3M it was 50.5 µM (inactive); in the test with MCF7, 12.3 µM (inactive). Further, the GI50 with SN12C was 31 µM (inactive); in the test with MDA-N it was 39.9 µM (inactive); in the test on HOP-62, > 100 µM (inactive); in the test on OVCAR-5, > 100 µM (inactive); in the test on HCC 2998 it was 36.6 µM (inactive); with PC-3, 62.1 µM (inactive). Also, the GI50 with NCI/ADR-RES is 30.1 µM (inactive); with K562, 34.4 µM (inactive); in the test with KM12, 49.1 µM (inactive); in the test with UACC-257 it was 20.2 µM (inactive); with HCT-116 it was 32.9 µM (inactive); with OVCAR-8, 24.1 µM (inactive). The GI50 is 34.5 µM (inactive) with U-251 and 67 µM (inactive) in the test with BT-549.

As to `O=C(CBr)NCCc1c[nH]c2ccccc12`, the GI50 with IGROV-1 is 1.83 µM (inactive); in the test with MDA-MB-435 it was 1.52 µM (inactive); with RPMI-8226 it was 1.97 µM (inactive); in the test on SK-MEL-5 it was 1.17 µM (inactive); with Malme-3M it was 2.94 µM (inactive); with MCF7 it was 2 µM (inactive). Further, the GI50 with SN12C was 1.45 µM (inactive); with MDA-N it was 2.02 µM (inactive); with HOP-62, 1.94 µM (inactive); with OVCAR-5 it was 1.87 µM (inactive); in the test on HCC 2998 it was 9.95 µM (inactive); with PC-3, 1.99 µM (inactive). The GI50 with NCI/ADR-RES is 2.11 µM (inactive); in the test on K562, 1.44 µM (inactive); with KM12, 1.93 µM (inactive); in the test with UACC-257, 3.01 µM (inactive); with HCT-116, 1.65 µM (inactive); with OVCAR-8, 3.33 µM (inactive). Moreover, the GI50 was 1.87 µM (inactive) in the test with U-251 and 1.77 µM (inactive) in the test on BT-549.

The values are drawn from ChEMBL document CHEMBL1201862, “PubChem BioAssay data set” (2004).
